From ChEMBL document CHEMBL1127004, “Structure-based design and pharmacological properties of potent selective and systemically active CCK-B peptidomimetics” (Bioorg Med Chem Lett, 1993)
Non-standard residues stand in square brackets, D forms with d. Residues, ends and D or L forms follow the SMILES beside them. *: point of attachment. 1Nal = N[C@@H](Cc1cccc2ccccc12)C(=O)O; Phg = N[C@H](C(=O)O)c1ccccc1; Boc = CC(C)(C)OC(=O)*

Each molecule was assayed against T1, Cholecystokinin receptor type A (Cavia porcellus, UniProt Q63931) (assay: Tested for the inhibition of [3H]pCCK-8 binding to Cholecystokinin type A receptor in pancreatic membranes of guinea-pig).
T1 sequence (Q63931 whole entry): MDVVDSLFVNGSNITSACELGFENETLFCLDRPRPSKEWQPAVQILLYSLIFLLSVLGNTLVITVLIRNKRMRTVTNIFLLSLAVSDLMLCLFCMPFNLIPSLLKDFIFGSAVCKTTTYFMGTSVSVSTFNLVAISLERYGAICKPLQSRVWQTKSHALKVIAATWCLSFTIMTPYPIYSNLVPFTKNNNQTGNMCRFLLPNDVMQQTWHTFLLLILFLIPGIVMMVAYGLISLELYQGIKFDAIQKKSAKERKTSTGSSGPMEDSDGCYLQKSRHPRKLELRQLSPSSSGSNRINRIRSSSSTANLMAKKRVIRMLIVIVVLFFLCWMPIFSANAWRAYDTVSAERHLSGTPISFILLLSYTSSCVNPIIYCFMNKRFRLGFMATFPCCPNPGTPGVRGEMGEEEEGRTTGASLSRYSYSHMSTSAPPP
Format: cell membranes

Ki [µM]	Structure (SMILES)
1	CN(C)C(=O)[C@H](Cc1cccc2ccccc12)NC(=O)[C@H](CC(=O)O)NC(=O)[C@@H](NC(=O)[C@H](Cc1c[nH]c2ccccc12)NC(=O)OC(C)(C)C)c1ccccc1 (Boc-W[Phg]D[1Nal]-NMe2)
2.4	CC(C)(C)OC(=O)N[C@@H](Cc1c[nH]c2ccccc12)C(=O)N[C@@H](Cc1ccccc1)C(=O)N[C@@H](CC(=O)O)C(=O)N[C@@H](Cc1cccc2ccccc12)C(N)=O (Boc-WFD[1Nal]-NH2)
1.1	CC(C)(C)OC(=O)N[C@@H](Cc1c[nH]c2ccccc12)C(=O)N[C@H](C(=O)N[C@@H](CC(=O)O)C(=O)N[C@@H](Cc1cccc2ccccc12)C(N)=O)c1ccccc1 (Boc-W[Phg]D[1Nal]-NH2)
1.1	CCCC[C@@H](NC(=O)CC(=O)N[C@@H](Cc1c[nH]c2ccccc12)C(=O)N(C)[C@@H](CCCC)C(=O)N[C@@H](CC(=O)O)C(=O)N[C@@H](Cc1ccccc1)C(N)=O)NC(=O)[C@H](Cc1ccc(CS(=O)(=O)O)cc1)NC(=O)OC(C)(C)C
